Laboratory results published in US8841319B2, “Use of 3-(indolyl)- or 3-(azaindolyl)-4-arylmaleimide derivatives in leukemia management” (Johannes Gutenberg-Universitat Mainz, priority 2007, dated 2014).

How the values were obtained:
[1] = system: murine 32D-FLT3-ITD cells; test: Apoptosis assay by cell cycle analysis (sub-G1 fraction) in 32D-FLT3-ITD cells; type: cell-based; conditions: 48 h incubation
From the text: A human FLT3-ITD construct, subcloned into the pAL expression vector under control of the 5′ long terminal repeat (LTR) of the Moloney murine sarcoma virus (MoMSV) and the plasmid pMAM/BSD were used as previously described (Mizuki, M., Schwable, J., Steur, C., Choudhary, C., Agrawal, S., Sargin, B., Steffen, B., Matsumura, I., Kanakura, Y., Bohmer, F. D., Muller-Tidow, C., Berdel, W. E. & Serve, H. (2003) Suppression of myeloid transcription factors and induction of STAT response genes by AML-specific FLT3 mutations. Blood, 101, 3164-3173). The N676K point mutation was introduced into this FLT3-ITD construct (Medigenomix Martinsried, Germany). […]
The induction of apoptosis in murine 32D-FLT3-ITD cells measured by sub-G1-fraction in cell cycle analysis upon 48 h incubation with two 3-(indolyl)- and 3-(azaindolyl)-4-phenylmaleimide derivatives (DHF125 and DHF150) was evaluated.

[2] = system: FLT3-WT cells; test: Apoptosis assay by cell cycle analysis (sub-G1 fraction) in FLT3-WT cells; type: cell-based; conditions: up to 10 μM, 48 h incubation
[3] = system: STAT5, ERK and AKT; test: Western blotting of downstream kinase targets; type: cell-based
Protocol: 2×10^6 cells were incubated in the presence of various inhibitor concentrations alone and in combination for 1 hour at 37° C. Preparation of cellular lysates was performed as described previously (Kindler, T., Breitenbuecher, F., Kasper, S., Estey, E., Giles, F., Feldman, E., Ehninger, G., Schiller, G., Klimek, V., Nimer, S. D., Gratwohl, A., Choudhary, C. R., Mueller-Tidow, C., Serve, H., Gschaidmeier, H., Cohen, P. S., Huber, C. & Fischer, T. (2005) Identification of a novel activating mutation (Y842C) within the activation loop of FLT3 in patients with acute myeloid leukemia (AML). Blood, 105, 335-340). Protein lysates were subjected to SDS polyacrylamid gel electrophoresis (SDS-PAGE) and blotted onto nitrocellulose membrane (Amersham, Freiburg, Germany) as previously described (Kindler, et al 2003). The following antibodies were used: anti-phospho-FLT3, anti-phospho-STAT5 (pTyr694/699), anti-phospho AKT (pSer473), anti-phospho ERK (pThr202/pTyr204) (all Cell Signaling Technology™, Frankfurt, Germany), anti-FLT3, anti-AKT and anti-STAT5 (Santa Cruz, Heidelberg, Germany), and anti-β-Actin (ICN). Densitometric analysis was performed using the program Gel-Pro Analyzer®.

[4] = biological target: T1, FLT3-kinase (Homo sapiens, UniProt P36888); test: FLT3-kinase assay at two ATP concentrations; type: biochemical
T1 sequence (P36888 27-993): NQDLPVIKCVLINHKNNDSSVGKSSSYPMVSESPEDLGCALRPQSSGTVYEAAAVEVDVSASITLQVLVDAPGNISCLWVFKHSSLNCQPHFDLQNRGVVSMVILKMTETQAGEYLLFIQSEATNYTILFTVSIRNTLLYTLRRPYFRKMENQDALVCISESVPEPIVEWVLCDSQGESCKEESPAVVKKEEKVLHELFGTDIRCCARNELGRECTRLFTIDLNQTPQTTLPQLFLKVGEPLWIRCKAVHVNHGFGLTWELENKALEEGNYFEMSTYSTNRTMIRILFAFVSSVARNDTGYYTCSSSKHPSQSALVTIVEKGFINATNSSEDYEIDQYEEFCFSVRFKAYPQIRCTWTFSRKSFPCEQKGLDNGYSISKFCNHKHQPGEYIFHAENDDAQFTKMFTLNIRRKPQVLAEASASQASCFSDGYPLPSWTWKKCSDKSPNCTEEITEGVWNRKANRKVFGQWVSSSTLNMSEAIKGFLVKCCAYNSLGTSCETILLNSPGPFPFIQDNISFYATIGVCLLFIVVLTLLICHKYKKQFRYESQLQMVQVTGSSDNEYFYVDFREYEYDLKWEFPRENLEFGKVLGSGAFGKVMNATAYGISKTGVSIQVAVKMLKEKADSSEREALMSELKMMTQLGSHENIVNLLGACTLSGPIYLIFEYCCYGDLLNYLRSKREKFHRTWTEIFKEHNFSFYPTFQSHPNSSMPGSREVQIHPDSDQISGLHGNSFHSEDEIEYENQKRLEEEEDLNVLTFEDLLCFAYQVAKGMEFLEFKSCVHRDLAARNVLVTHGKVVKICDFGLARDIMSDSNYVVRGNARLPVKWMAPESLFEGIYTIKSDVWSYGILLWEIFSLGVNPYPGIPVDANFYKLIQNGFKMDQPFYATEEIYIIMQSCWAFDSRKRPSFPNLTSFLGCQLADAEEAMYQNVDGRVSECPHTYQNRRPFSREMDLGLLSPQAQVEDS

[5] = system: FLT3; test: Immunoprecipitation of FLT3 (anti-FLT3 and anti-P-Tyr); type: cell-based
[6] = system: FLT3-ITD-positive cells; test: Drug combination with chemotherapy, Chou-Talalay plot (CompuSyn); type: cell-based
Protocol: The chemotherapeutic agents cytarabine and daunorubicine were dissolved and diluted in aqua dest. Equivalent doses of DMSO were added when used for combination treatment.
For definition of synergism and/or antagonism in drug combinations we used the CompuSyn™ software (Chou, T C and Martin, N; ComboSyn, Inc. Paramus, N. J., USA) as previously described (Chou, T. C. (2006) Theoretical basis, experimental design, and computerized simulation of synergism and antagonism in drug combination studies. Pharmacol Rev, 58, 621-681).

[7] = system: primary AML blasts harboring the FLT3-ITD mutation; test: Apoptosis (sub-G1 fraction, FACS) in primary AML blasts; type: cell-based, human; conditions: primary AML blasts with FLT3-ITD mutation, 72 h incubation
Protocol: Transfected murine 32D cells (1×10^5 cells/well) were incubated in 2 ml RPMI medium supplemented with 10% FCS with different inhibitor concentrations for 48 hours at 37° C. Primary human cells (2×10^5 cells/well) were incubated for 72 hours at 37° C. After incubation, cells were washed with ice cold PBS, pelleted and mixed with 300 μl of propidium-iodide-buffer (containing 50 μg/ml PI in 0.1% sodium citrate plus 0.1% Triton X 100, Sigma) for 30 minutes at 4° C. Cell cycle analysis was performed as described previously (Nicoletti, I., Migliorati, G., Pagliacci, M. C., Grignani, F. & Riccardi, C. (1991) A rapid and simple method for measuring thymocyte apoptosis by propidium iodide staining and flow cytometry. J Immunol Methods, 139, 271-279) using a FACSCanto™ flow cytometer (BD Biosciences, Heidelberg, Germany).
BM- and PB-samples with heparin as anticoagulant were obtained from AML patients or donors with no evidence of malignant bone marrow infiltration after informed consent in a study approved by the local ethics committee. Mononuclear cells (MNC) were isolated immediately by means of Ficoll-Hypaque (Seromed, Berlin, Germany) density gradient centrifugation. […]
Primary AML blasts at primary diagnosis were incubated for 72 h with both 3-(indolyl)- and 3-(azaindolyl)-4-phenylmaleimide derivatives. Induction of apoptosis was measured by sub-G1-fraction in FACS analysis. […]

[8] = system: non-malignant bone marrow cells; test: Colony assay of non-malignant bone marrow cells; conditions: day 10
Protocol: Bone-marrow MNCs were isolated as indicated above. Bone marrow samples were obtained from patients in CR after NHL or AML treatment or without evidence of any malignant bone marrow infiltration. 1×10^5 cells were plated in 1.1 ml Methocult™ (GF H4534) “Complete” Methylcellulose Medium with recombinant cytokines (StemCell Technologies, Vancouver, Canada) and incubated for 10 days at 37° C. in duplicate. Colony formation was counted on day 10.

colony formation ([8]; 10 μM) | reduction in colony formation ([8]; up to 5 μM) | Compound | sub-G1-cell fraction (induction of apoptosis) [1] | induction of apoptosis [2] | phosphorylation of downstream-targets STAT5, ERK and AKT [3] | inhibition of FLT3-kinase [4] | phosphorylation of FLT3 [5] | effect in combination with cytarabine [6] | effect in combination with daunorubicine [6] | induction of apoptosis, percentage of apoptotic cells on top of ground apoptosis [7]
– | – | COc1cc(C2=C(c3c[nH]c4ccccc34)C(=O)NC2=O)cc(OC)c1OC [DHF125, 3-(Indole-3-yl)-4-(3,4,5-trimethoxyphenyl)-1H-pyrrole-2,5-dione] | statistically very significant dose-dependent increase | No significant induction of apoptosis | dephosphorylation | ATP competitive inhibition | dephosphorylation | synergistic effects | synergistic effects | 10-17%
reduced to a minimum | no significant reduction | COc1cc(C2=C(c3c[nH]c4ncccc34)C(=O)NC2=O)cc(OC)c1OC [DHF150, 3-(7-Azaindol-3-yl)-4-(3,4,5-trimethoxyphenyl)-1H-pyrrole-2,5-dione] | statistically very significant dose-dependent increase | No significant induction of apoptosis | dephosphorylation | ATP competitive inhibition | dephosphorylation | synergistic effects | synergistic effects | 17-28%
